Laboratory results: ChEMBL document CHEMBL1122344, “Pyridazinones. 2. Synthesis and antisecretory and antiulcer activities of thiourea and 2-cyanoguanidine derivatives” (1983)

Legend:
Assay type in all cases: functional
Rattus norvegicus [1] = assay: Gastric antisecretory activity at the dose of 100 mg/kg in pylorus lygated rats
Rattus norvegicus [2] = organism: Rattus norvegicus; assay: Dose required to inhibit gastric secretory activity in pylorus lygated rats; conditions: Stomach
Rattus norvegicus [3] = organism: Rattus norvegicus; assay: Dose required to inhibit ulcer induced by stress in rats

Row | SMILES | inhibition in vivo at 100 mg/kg (Rattus norvegicus [1]) | ED50 (Rattus norvegicus [2]) | ED50 (Rattus norvegicus [3])
1 | CC/N=C(\S)NCCCCCCn1nc(-c2ccccc2)ccc1=O | -5.6% |  | 
2 | CC/N=C(/NC#N)NCCCCn1nc(-c2ccccc2)cc(C)c1=O | 42.5% | > 100 mg/kg | 
3 | O=c1ccc(-c2ccccc2)nn1CCCC/N=C(\S)Nc1cccc(F)c1 | 30.4% | > 100 mg/kg | 
4 | CC/N=C(/NC#N)NCCCn1nc(-c2ccccc2)c(C)cc1=O | 0.2% |  | 
5 | O=c1ccc(-c2ccccc2)nn1CCCNC(=S)Nc1ccccc1 | 12.1% |  | 
6 | CC/N=C(\S)NCCCCn1nc(-c2ccccc2)ccc1=O | 67.7% | 37.2 mg/kg | 19.8 mg/kg
7 | CC/N=C(/NC#N)NCCCn1nc(C)ccc1=O | 34.5% | > 100 mg/kg | 
8 | C/N=C(/NC#N)NCCCCn1nc(-c2ccc(C)cc2)ccc1=O | 45.7% | > 100 mg/kg | 
9 | CC/N=C(\S)NCCCn1nc(-c2ccccc2)ccc1=O | 39% | > 100 mg/kg | 88.2 mg/kg
10 | CN(C)/C(=N/CCCCCCn1nc(-c2ccccc2)ccc1=O)NC#N | 58.4% | 93.1 mg/kg | 92.5 mg/kg
11 | O=c1ccc(-c2ccccc2)nn1CCCNC(=S)NC1CCCCC1 | 23.6% |  | 
12 | C/N=C(\S)NCCCn1nc(C)ccc1=O | -8.2% |  | 
13 | C/N=C(\S)NCCn1nc(C)ccc1=O | 6% |  | 
14 | O=c1ccc(-c2ccccc2)nn1CCCC/N=C(\S)Nc1ccc(S(=O)(=O)O)cc1 | 25.1% |  | 
15 | C/N=C(\S)NCCCCCCn1nc(C)ccc1=O | -12.5% |  | 
16 | N#CNC(=N)NCCCCn1nc(-c2ccccc2)ccc1=O | 61.2% | 77.2 mg/kg | 59.3 mg/kg
17 | CCC/N=C(/NC#N)NCCCCCn1nc(-c2ccccc2)ccc1=O | 27.5% | > 100 mg/kg | 
18 | C/N=C(\S)NCCCCCn1nc(C)ccc1=O | 3.2% |  | 
19 | CC/N=C(/NC#N)NCCCCn1nc(C)ccc1=O | 13.5% |  | 
20 | O=c1ccc(-c2ccccc2)nn1CCCCNC(=S)NC1CCCCC1 | 18.1% |  | 
21 | C/N=C(/NC#N)NCCCCn1nc(Nc2ccccc2)ccc1=O | 24.4% | > 100 mg/kg | 

Row | SMILES | inhibition in vivo at 100 mg/kg (Rattus norvegicus [1]) | ED50 (Rattus norvegicus [2]) | ED50 (Rattus norvegicus [3])
22 | C/N=C(\S)NCCCCn1nc(C)ccc1=O | 44.5% | > 100 mg/kg | 
23 | C/N=C(/NC#N)NCCCn1nc(-c2ccccc2)ccc1=O | 40.5% | > 100 mg/kg | 78.1 mg/kg
24 | CN(C)/C(=N/CCn1nc(-c2ccccc2)ccc1=O)NC#N | 63.9% | 62.8 mg/kg | > 100 mg/kg
25 | CN/C(=N\CCSCc1nc[nH]c1C)NC#N [CIMETIDINE] | 80.6% |  | 43.2 mg/kg
26 | C/N=C(/NC#N)NCCCCn1nc(N2CCCC2)ccc1=O | -1% |  | 
27 | CN(C)/C(=N/CCCn1nc(-c2ccccc2)ccc1=O)NC#N | 72.2% | 53 mg/kg | 93.1 mg/kg
28 | N#CNC(=N)NCCCCCCn1nc(-c2ccccc2)ccc1=O | 20.5% |  | 
29 | O=c1ccc(-c2ccccc2)nn1CCNC(=S)NC1CCCCC1 | 12.3% |  | 
30 | CC/N=C(/NC#N)NCCCCCCn1nc(-c2ccccc2)ccc1=O | 29.1% | > 100 mg/kg | > 100 mg/kg
31 | C=CCNC(=S)NCCCCn1nc(-c2ccccc2)ccc1=O | 27.1% | > 100 mg/kg | 78.6 mg/kg
32 | C/N=C(/NC#N)NCCCCCn1nc(-c2ccccc2)c(C)cc1=O | 28.5% | > 100 mg/kg | 
33 | CC(C)(C)/N=C(\S)NCCCCn1nc(-c2ccccc2)ccc1=O | 33.6% | > 100 mg/kg | 
34 | C/N=C(/NC#N)NCCCn1nc(-c2ccccc2)c(C)cc1=O | 17.2% |  | 
35 | CNC(=S)CCCCCn1nc(-c2ccccc2)ccc1=O | 90.3% | 23.8 mg/kg | 18.3 mg/kg
36 | CCC/N=C(/NC#N)NCCCCn1nc(-c2ccccc2)ccc1=O | 26.3% | > 100 mg/kg | 
37 | C/N=C(\S)NCCCCCCn1nc(-c2ccccc2)ccc1=O | 22.2% |  | 
38 | C/N=C(/NC#N)NCCCCn1nc(C)ccc1=O | 23.5% | > 100 mg/kg | 
39 | C/N=C(/NC#N)NCCn1nc(-c2ccccc2)ccc1=O | -3.5% |  | 
40 | C/N=C(/NC#N)NCCCCCn1nc(-c2ccccc2)ccc1=O | 47.6% | 100 mg/kg | 76.2 mg/kg
41 | C/N=C(/NC#N)NCCCCCn1nc(C)ccc1=O | 14.9% |  | 
42 | O=c1ccc(-c2ccccc2)nn1CCCCNC(=S)Nc1ccc(Cl)cc1 | 43.2% | > 100 mg/kg | 
